Data set [1] deals with T1, Alpha-1D adrenergic receptor (Homo sapiens, UniProt P25100).
T1 sequence (P25100 whole entry): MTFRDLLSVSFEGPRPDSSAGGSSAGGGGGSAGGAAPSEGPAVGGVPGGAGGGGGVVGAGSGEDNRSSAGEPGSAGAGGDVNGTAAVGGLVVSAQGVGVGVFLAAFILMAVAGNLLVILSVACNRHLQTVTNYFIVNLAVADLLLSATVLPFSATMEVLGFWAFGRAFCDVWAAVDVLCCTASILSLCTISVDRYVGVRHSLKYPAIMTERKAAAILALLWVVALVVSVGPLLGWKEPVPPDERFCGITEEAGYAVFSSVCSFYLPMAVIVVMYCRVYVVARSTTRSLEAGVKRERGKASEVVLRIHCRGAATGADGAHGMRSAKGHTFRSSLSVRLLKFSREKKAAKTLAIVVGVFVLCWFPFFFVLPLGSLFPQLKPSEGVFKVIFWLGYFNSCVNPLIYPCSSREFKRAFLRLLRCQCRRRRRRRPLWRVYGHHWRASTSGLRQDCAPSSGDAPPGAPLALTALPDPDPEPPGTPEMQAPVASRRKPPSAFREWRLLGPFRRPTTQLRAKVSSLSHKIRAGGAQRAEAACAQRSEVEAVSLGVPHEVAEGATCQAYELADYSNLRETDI
Format: cell membranes, HEK293, Membrane.

Data set [2] can be described thus: DRUGMATRIX: Tumor Necrosis Factor (TNF), Non-Selective radioligand binding (ligand: [125I] TNF-alpha). Format: cell membranes, Membrane. The conditions noted are these: u-937; Not Active = under 50% inhibition at 10 µM.
Data set [3] is described as follows: DRUGMATRIX: Nicotinic Acetylcholine radioligand binding (ligand: [125I] Epibatidine). Format: cell membranes, Membrane. Particulars: imr-32; Not Active = under 50% inhibition at 10 µM.
Data set [4] has as its target T2, Alpha-2C adrenergic receptor (Homo sapiens, UniProt P18825).
T2 sequence (P18825 whole entry): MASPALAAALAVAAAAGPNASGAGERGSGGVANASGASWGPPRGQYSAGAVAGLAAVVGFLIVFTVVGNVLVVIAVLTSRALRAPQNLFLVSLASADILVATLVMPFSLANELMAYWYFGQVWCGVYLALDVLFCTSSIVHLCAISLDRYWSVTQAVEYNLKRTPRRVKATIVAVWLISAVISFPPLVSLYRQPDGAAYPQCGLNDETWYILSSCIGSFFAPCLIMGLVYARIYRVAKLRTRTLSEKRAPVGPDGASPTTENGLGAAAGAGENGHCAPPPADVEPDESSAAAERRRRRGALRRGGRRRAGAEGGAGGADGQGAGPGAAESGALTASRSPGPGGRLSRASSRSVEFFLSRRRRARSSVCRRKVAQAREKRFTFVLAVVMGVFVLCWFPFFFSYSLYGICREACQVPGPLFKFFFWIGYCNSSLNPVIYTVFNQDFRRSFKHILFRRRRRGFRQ
As to the kind of experiment: DRUGMATRIX: Adrenergic Alpha-2C radioligand binding (ligand: [3H] MK-912). Format: cell membranes, Sf9, Membrane. The conditions noted are these: sf9.

The target of a further data set is Mu-type opioid receptor (Homo sapiens, UniProt P35372). As to the kind of experiment: DRUGMATRIX: Opiate mu (OP3, MOP) radioligand binding (ligand: [3H] Diprenorphine). Format: cell membranes, CHO-K1, Membrane. The conditions noted are these: cho-k1; Not Active = under 50% inhibition at 10 µM.
Mu-type opioid receptor, sequence (P35372 whole entry): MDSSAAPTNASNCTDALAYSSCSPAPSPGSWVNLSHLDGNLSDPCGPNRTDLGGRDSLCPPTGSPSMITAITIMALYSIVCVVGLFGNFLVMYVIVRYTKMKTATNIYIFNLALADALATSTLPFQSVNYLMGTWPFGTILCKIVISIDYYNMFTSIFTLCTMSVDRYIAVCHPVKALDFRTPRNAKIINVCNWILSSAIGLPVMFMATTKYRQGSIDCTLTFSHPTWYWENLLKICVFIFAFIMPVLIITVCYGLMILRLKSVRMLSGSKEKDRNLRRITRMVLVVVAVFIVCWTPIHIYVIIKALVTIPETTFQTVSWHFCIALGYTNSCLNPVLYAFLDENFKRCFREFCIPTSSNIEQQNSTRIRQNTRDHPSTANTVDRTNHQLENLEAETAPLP
Data set [5] in a line: DRUGMATRIX: Platelet-Derived Growth Factor (PDGF) radioligand binding (ligand: [125I] PDGF). Format: cell-based. Particulars: nih3t3; Not Active = under 50% inhibition at 10 µM.
Data set [6] addresses Beta-2 adrenergic receptor (Homo sapiens, UniProt P07550). As to the kind of experiment: DRUGMATRIX: Adrenergic beta2 radioligand binding (ligand: [3H] CGP-12177). Format: cell membranes, Membrane. The conditions noted are these: cho; Not Active = under 50% inhibition at 10 µM.
Data set [7] addresses Aldo-keto reductase family 1 member B1 (Rattus norvegicus, UniProt P07943). Format: tissue-based, Lens of camera-type eye.
The next data set addresses T3, Cathepsin G (Homo sapiens, UniProt P08311).
T3 sequence (P08311 whole entry): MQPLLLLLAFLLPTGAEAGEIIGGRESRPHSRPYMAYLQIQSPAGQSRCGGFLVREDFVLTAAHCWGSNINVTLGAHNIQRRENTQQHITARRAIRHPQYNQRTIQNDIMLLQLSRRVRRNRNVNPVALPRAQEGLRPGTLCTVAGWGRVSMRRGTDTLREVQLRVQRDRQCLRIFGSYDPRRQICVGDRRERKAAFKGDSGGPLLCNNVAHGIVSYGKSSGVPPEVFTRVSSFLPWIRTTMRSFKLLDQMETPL
Format: tissue-based. The conditions noted are these: neutrophil.

In data set [8] the target is Mitogen-activated protein kinase 1 (Homo sapiens, UniProt P28482). As to the kind of experiment: DRUGMATRIX: Protein Serine/Threonine Kinase, ERK2 enzyme inhibition (substrate: Myelin Basic Protein). On the set-up: species or system Escherichia coli. Particulars: Not Active = under 50% inhibition at 10 µM.
Mitogen-activated protein kinase 1, sequence (P28482 whole entry): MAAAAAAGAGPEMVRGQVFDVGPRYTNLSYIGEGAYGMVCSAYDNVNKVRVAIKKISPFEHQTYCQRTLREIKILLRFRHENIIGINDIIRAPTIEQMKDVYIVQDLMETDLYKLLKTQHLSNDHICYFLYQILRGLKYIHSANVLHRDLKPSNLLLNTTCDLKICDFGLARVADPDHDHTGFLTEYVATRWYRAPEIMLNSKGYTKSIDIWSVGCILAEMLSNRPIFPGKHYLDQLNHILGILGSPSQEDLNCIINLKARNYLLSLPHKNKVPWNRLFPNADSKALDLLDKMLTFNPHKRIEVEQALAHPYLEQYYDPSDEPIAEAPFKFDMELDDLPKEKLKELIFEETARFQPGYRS
Data set [9] has as its target T4, Vasoactive intestinal polypeptide receptor 1 (Homo sapiens, UniProt P32241). Note: in other assays of this panel Not Active means under 50% inhibition at 10 µM.
T4 sequence (P32241 whole entry): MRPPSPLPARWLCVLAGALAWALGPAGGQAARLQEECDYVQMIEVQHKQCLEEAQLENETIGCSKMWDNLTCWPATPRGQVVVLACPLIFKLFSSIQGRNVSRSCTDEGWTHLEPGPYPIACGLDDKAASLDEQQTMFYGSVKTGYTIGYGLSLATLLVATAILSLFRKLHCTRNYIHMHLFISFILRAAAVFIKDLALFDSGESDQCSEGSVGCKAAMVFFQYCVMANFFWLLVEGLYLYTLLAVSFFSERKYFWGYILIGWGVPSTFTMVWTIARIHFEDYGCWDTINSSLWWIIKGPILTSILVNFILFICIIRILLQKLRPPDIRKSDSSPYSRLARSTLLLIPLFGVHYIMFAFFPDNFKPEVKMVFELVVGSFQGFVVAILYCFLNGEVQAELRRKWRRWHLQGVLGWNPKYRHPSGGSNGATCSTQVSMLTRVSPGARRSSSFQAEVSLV
Format: cell membranes, Membrane. Particulars: ht-29.

Data set [10] addresses 5-hydroxytryptamine receptor 1B (Rattus norvegicus, UniProt P28564). Format: cell membranes, Wistar, Cerebral cortex, Membrane.
For the next data set, the target named is Cytochrome P450 2E1 (Homo sapiens, UniProt P05181). Particulars: bti-tn-5b1-4. Note: in other assays of this panel Not Active means under 50% inhibition at 10 µM.
Cytochrome P450 2E1, sequence (P05181 whole entry): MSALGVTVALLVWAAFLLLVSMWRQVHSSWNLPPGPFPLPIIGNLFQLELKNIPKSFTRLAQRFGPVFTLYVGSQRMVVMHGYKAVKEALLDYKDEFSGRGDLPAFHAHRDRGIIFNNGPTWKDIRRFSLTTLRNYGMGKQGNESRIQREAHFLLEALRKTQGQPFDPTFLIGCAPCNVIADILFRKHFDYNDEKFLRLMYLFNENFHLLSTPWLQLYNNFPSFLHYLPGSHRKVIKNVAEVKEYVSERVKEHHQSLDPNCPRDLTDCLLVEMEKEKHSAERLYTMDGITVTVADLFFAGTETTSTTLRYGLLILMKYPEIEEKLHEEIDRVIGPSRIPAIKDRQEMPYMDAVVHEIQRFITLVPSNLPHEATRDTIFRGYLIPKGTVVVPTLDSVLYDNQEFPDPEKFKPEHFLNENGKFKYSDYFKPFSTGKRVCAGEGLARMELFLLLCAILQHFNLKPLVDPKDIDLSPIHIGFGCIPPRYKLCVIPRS

One may read the IC50 as the concentration that inhibits the measured activity by half. As a reminder, the Ki is the equilibrium dissociation constant of an inhibitor or competing ligand from its target.

Structures are written as SMILES.

5-hydroxytryptamine receptor 1B, sequence (P28564 whole entry): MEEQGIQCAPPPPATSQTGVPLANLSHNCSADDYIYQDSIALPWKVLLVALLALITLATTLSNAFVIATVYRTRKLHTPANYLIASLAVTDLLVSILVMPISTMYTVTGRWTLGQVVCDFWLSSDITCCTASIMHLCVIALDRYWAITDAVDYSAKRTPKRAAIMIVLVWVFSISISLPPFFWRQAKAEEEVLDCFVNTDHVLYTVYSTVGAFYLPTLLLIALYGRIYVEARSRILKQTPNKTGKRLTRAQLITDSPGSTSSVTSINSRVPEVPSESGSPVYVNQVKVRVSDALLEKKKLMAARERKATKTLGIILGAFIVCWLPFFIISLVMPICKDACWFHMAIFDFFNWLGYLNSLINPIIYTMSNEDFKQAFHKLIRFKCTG
Beta-2 adrenergic receptor, sequence (P07550 whole entry): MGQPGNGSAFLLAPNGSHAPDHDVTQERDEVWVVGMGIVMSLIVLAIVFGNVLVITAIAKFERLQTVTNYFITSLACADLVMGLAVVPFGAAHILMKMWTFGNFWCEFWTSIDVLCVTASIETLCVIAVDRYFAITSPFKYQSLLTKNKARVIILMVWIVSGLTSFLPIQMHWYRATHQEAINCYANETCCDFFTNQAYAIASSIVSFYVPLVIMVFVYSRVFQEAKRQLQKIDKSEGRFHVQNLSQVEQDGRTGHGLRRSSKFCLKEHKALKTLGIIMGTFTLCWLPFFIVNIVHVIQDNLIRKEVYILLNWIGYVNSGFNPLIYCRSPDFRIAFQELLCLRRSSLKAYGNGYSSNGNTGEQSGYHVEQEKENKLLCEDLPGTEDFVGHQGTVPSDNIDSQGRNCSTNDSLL

Turning to `CC[C@@]1(O)C(=O)OCc2c1cc1n(c2=O)Cc2cc3ccccc3nc2-1` [CAMPTOTHECIN], the concentration for half-maximal inhibition (IC50) result (in [1] (hek293); in data set [2]; in data set [3]; in data set [4]; at Mu-type opioid receptor; in [5]) was “Not Active” each time. Moreover, the IC50 result (in data set [6]; in data set [7]; at Cathepsin G; in [8]; in [9]; in data set [10]) was “Not Active” each time. At Cytochrome P450 2E1, the IC50 result is “Not Active”. Further, the inhibition constant Ki result (in data set [2]; in data set [3]; in [5]; at Cytochrome P450 2E1) was “Not Active” each time.

For `COCc1c(C(C)C)nc(C(C)C)c(/C=C/[C@@H](O)C[C@@H](O)CC(=O)O)c1-c1ccc(F)cc1` [CERIVASTATIN], the IC50 entry (in data set [1] (hek293); in [2]; in [3]; in data set [4]; on Mu-type opioid receptor; in data set [5]) was “Not Active” each time. Besides, the concentration for half-maximal inhibition (IC50) result (in data set [6]; in data set [7]; against Cathepsin G; in [8]; in data set [9]; in data set [10]) was “Not Active” in each case. The concentration for half-maximal inhibition (IC50) entry against Cytochrome P450 2E1 is reported as “Not Active”. Also, the inhibition constant Ki result (in data set [2]; in data set [3]; in [5]; at Cytochrome P450 2E1) was “Not Active” in each case.

Regarding `CC(=O)O[C@]1(C(C)=O)CC[C@H]2[C@@H]3C=C(Cl)C4=CC(=O)CC[C@]4(C)[C@H]3CC[C@@]21C` [CHLORMADINONE ACETATE], the IC50 entry (in [1] (hek293); in data set [2]; in data set [3]; in [4]; on Mu-type opioid receptor; in data set [5]) was “Not Active” throughout. The IC50 result (in [6]; in data set [7]; against Cathepsin G; in data set [8]; in data set [9]; in [10]) was “Not Active” each time. Also, the IC50 result on Cytochrome P450 2E1 is “Not Active”. In addition, the Ki entry (in data set [2]; in data set [3]; in data set [5]; on Cytochrome P450 2E1) was “Not Active” each time.

For `O=C1CCc2cc(OCCCCc3nnnn3C3CCCCC3)ccc2N1` [CILOSTAZOL], the IC50 entry (in data set [1] (hek293); in [2]; in data set [3]; in data set [4]; on Mu-type opioid receptor; in data set [5]) was “Not Active” throughout. For the same compound, the IC50 entry (in data set [6]; in data set [7]; on Cathepsin G; in data set [8]; in data set [9]; in [10]) was “Not Active” throughout. For the same compound, at Cytochrome P450 2E1, the IC50 result was “Not Active”. Also, the Ki result (in data set [2]; in [3]; in [5]; at Cytochrome P450 2E1) was “Not Active” in each case.

On to `O=C(O)c1cn(C2CC2)c2cc(N3CCNCC3)c(F)cc2c1=O` [CIPROFLOXACIN], for which the 50% inhibitory concentration (IC50) result (in data set [1] (hek293); in [2]; in data set [3]; in [4]; on Mu-type opioid receptor; in data set [5]) was “Not Active” each time. For the same compound, the IC50 result (in data set [6]; in data set [7]; on Cathepsin G; in data set [8]; in data set [9]; in data set [10]) was “Not Active” throughout. The concentration for half-maximal inhibition (IC50) entry on Cytochrome P450 2E1 was “Not Active”. For the same compound, the inhibitory constant (Ki) result (in data set [2]; in data set [3]; in data set [5]; at Cytochrome P450 2E1) was “Not Active” each time.

`CN(C)CCCC1(c2ccc(F)cc2)OCc2cc(C#N)ccc21` (stereo not given) [CITALOPRAM]: the IC50 in data set [1] (read-out: IC50) is 3.29 µM; in data set [2], “Not Active”; in [3], “Not Active”; in data set [4] it was “Not Active”; at Mu-type opioid receptor it was “Not Active”; in data set [5], “Not Active”. Besides, the 50% inhibitory concentration (IC50) result (in data set [6]; in data set [7]; against Cathepsin G; in data set [8]; in [9]; in [10]) was “Not Active” throughout. For the same compound, the IC50 entry at Cytochrome P450 2E1 is recorded as “Not Active”. For the same compound, the Ki in data set [1] (read-out: Ki) was 1620 nM; in data set [2] it was “Not Active”; in data set [3], “Not Active”; in data set [5] it was “Not Active”; on Cytochrome P450 2E1, “Not Active”.

As for `COC(=O)[C@H](c1ccccc1Cl)N1CCc2sccc2C1` [CLOPIDOGREL], the half-maximal inhibitory concentration (IC50) result (in data set [1] (hek293); in data set [2]; in data set [3]; in data set [4]; at Mu-type opioid receptor; in [5]) was “Not Active” in each case. Further, the 50% inhibitory concentration (IC50) result (in data set [6]; in [7]; on Cathepsin G; in data set [8]; in [9]; in [10]) was “Not Active” each time. Moreover, the half-inhibitory concentration (IC50) result at Cytochrome P450 2E1 is recorded as “Not Active”. The inhibition constant (Ki) entry (in [2]; in [3]; in data set [5]; on Cytochrome P450 2E1) was “Not Active” throughout.

The values above are taken from ChEMBL document CHEMBL1909046, “DrugMatrix in vitro pharmacology data”.
